Experimental findings from patent publication US7585875B2, “Substituted pyrazolo[1,5-a]pyridine compounds and their methods of use” (Avigen, Inc., priority 2006, dated 2009) are described below.

Assay [1] relates to mechanical allodynia after chronic constriction injury (CCI) to the sciatic nerve. Briefly: Mechanical allodynia by response to von Frey fibers, rat chronic constriction injury (CCI) model. The class given is in vivo, male Sprague-Dawley rats. The settings on record: 2 hr post dosing. An excerpt: Chronic Constriction Injury: Heat and cold allodynia responses as well as mechanical allodynia sensations can be evaluated as described below in rats having a chronic constriction injury (CCI). A unilateral mononeuropathy is produced in rats using the chronic constriction injury model described in Bennett et al., Pain (1988) 33:87-107. CCI is produced in anesthetized rats as follows. The lateral aspect of each rat's hind limb is shaved and scrubbed with Nolvasan. Using aseptic techniques, an incision is made on the lateral aspect of the hind limb at the mid-thigh level. The biceps femoris is bluntly dissected to expose the sciatic nerve. On the right hind limb of each rat, four loosely tied ligatures (for example, Chromic gut 4.0; Ethicon, Johnson and Johnson, Somerville, N.J.) are made around the sciatic nerve approximately 1-2 mm apart. On the left side of each rat, an identical dissection is performed except that the sciatic nerve is not ligated (sham). The muscle is closed with a continuous suture pattern with, e.g., 4-0 Vicryl (Johnson and Johnson, Somerville, N.J.) and the overlying skin is closed with wound clips. The rats are ear-tagged for identification purposes and returned to animal housing.
To induce allodynia, male Sprague-Dawley rats underwent chronic constriction injury (CCI) to the sciatic nerve as described by Bennett and Xie, Pain 1988; 33(1):87-107. The plantar surface of the hind paws was stimulated with von Frey filaments (Stoelting) to induce a withdrawal response by blinded personnel. The bending force of fiber required to induce a 50% withdrawal response was calculated following CCI surgery (pre-dosing baseline). N=5-6 allodynic rats received a single intraperitoneal administration of test compound or vehicle. Two hours post-dosing, 50% paw withdrawal threshold was determined again by blinded testers using von Frey filaments. The change in 50% withdrawal threshold relative to pre-dosing baseline is reported in Table 2 for various substituted pyrazolo[1,5-a]pyridine compounds of the invention.

The target of assay [2] is phosphodiesterase (PDE) enzyme derived from bovine brain. Kind of assay: Inhibition of PDE (PDELight kit, cAMP substrate). The settings on record: PDE from brain extract, cAMP as substrate. The class given is biochemical. On the procedure: In a 96-well plate, phosphodiesterase (PDE) enzyme (0.5-1 mU/well) derived from bovine brain (Sigma) was combined with 5 uM cAMP substrate (Sigma). Test compounds (0-200 uM) or vehicle (0.5% DMSO) were added to the enzyme/substrate and incubated for 1 hour. Using a PDELight® kit (Cambrex), the amount of AMP produced in the reaction from the hydrolysis of cAMP was quantified using PDELight AMP Detection Reagent which converts the AMP directly to ATP. The assay uses luciferase, which catalyses the formation of light from the newly formed ATP and luciferin. The luminescence was read on a Victor Light 1420 luminometer. IC50 calculations were plotted using a nonlinear regression curve fit.

Counter-ions that a name gives are not always drawn.

With `CC(C)C(=NOC(N)=O)c1c(-c2ccccc2)nn2ccccc12` [Compound 1017, 2-methyl-1-(2-phenylpyrazolo[1,5-a]pyridin-3-yl)propan-1-one O-carbamoyl oxime], the “Mechanical Allodynia ΔWT (change from pre-dosing 50% withdrawal threshold)” value in assay [1] (10 mg/kg IP) came to 0.91 grams. In addition, the IC50 in assay [2] was more than 200 µM.
Take `CC(C)C(=NOC(N)=O)c1c(-c2ccc(F)cc2)nn2ccccc12` [Compound 1020, 1-(2-(4-fluorophenyl)pyrazolo[1,5-a]pyridin-3-yl)-2-methylpropan-1-one O-carbamoyl oxime]: the IC50 in assay [2] is more than 200 µM.
On to `COc1ccc(-c2nn3ccccc3c2C(=O)C(C)C)cc1` [Compound 1021, 1-(2-(4-methoxyphenyl)pyrazolo[1,5-a]pyridin-3-yl)-2-methylpropan-1-one], for which the “Mechanical Allodynia ΔWT (change from pre-dosing 50% withdrawal threshold)” value in assay [1] (10 mg/kg IP) is on record as 0.45 grams. In addition, the IC50 in assay [2] was more than 200 µM.
Consider `COc1ccc(-c2nn3ccccc3c2C(=NO)C(C)C)cc1` [Compound 1022, 1-(2-(4-methoxyphenyl)pyrazolo[1,5-a]pyridin-3-yl)-2-methylpropan-1-one oxime], for which, in assay [1] (10 mg/kg IP), the “Mechanical Allodynia ΔWT (change from pre-dosing 50% withdrawal threshold)” value came out at 0 grams. The same molecule showed an IC50 in assay [2] of 23.9 µM.
In assay [2], `COc1ccc(-c2nn3ccccc3c2C(=NOC(N)=O)C(C)C)cc1` [Compound 1023, 1-(2-(4-methoxyphenyl)pyrazolo[1,5-a]pyridin-3-yl)-2-methylpropan-1-one O-carbamoyl oxime] returned an IC50 of 156 µM.
In the case of `CC(C)C(=NO)c1c(-c2ccc(Cl)cc2)nn2ccccc12` [Compound 1025, 1-(2-(4-chlorophenyl)pyrazolo[1,5-a]pyridin-3-yl)-2-methylpropan-1-one oxime], the “Mechanical Allodynia ΔWT (change from pre-dosing 50% withdrawal threshold)” value in assay [1] (10 mg/kg IP) was 0.81 grams. The IC50 in assay [2] stood at 23 µM.
With `CC(C)C(=NOC(N)=O)c1c(-c2ccc(Cl)cc2)nn2ccccc12` [Compound 1026, 1-(2-(4-chlorophenyl)pyrazolo[1,5-a]pyridin-3-yl)-2-methylpropan-1-one O-carbamoyl oxime], in assay [1] (10 mg/kg IP), the “Mechanical Allodynia ΔWT (change from pre-dosing 50% withdrawal threshold)” value worked out at 1.14 grams. Also, the IC50 in assay [2] worked out at 27.7 µM.
Regarding `CC(C)c1nn2ccccc2c1C(=O)C(C)N1CCOCC1` (stereo not drawn) [Compound 1034, 1-(2-isopropylpyrazolo[1,5-a]pyridin-3-yl)-2-morpholinopropan-1-one hydrochloride], the “Mechanical Allodynia ΔWT (change from pre-dosing 50% withdrawal threshold)” value in assay [1] (10 mg/kg IP) is 10 mg/kg: 1.71 grams; in assay [1] (20 mg/kg IP) it was 20 mg/kg: 0.54 grams. Also, in assay [2], half-maximal inhibition (IC50) was put at 43.3 µM.
For the molecule `CC(C)c1nn2ccccc2c1C(=O)C(C)N1CCN(C)CC1` (stereo not drawn) [Compound 1035, 1-(2-isopropylpyrazolo[1,5-a]pyridin-3-yl)-2-(4-methylpiperazin-1-yl)propan-1-one hydrochloride], the “Mechanical Allodynia ΔWT (change from pre-dosing 50% withdrawal threshold)” value in assay [1] (10 mg/kg IP) is on record as 0 grams. The molecule also showed an IC50 in assay [2] of 198 µM.
As for `CC(C)c1nn2ccccc2c1C(=O)C(C)N1CCCCC1` (stereo not drawn) [Compound 1036, 1-(2-isopropylpyrazolo[1,5-a]pyridin-3-yl)-2-(piperidin-1-yl)propan-1-one hydrochloride], the “Mechanical Allodynia ΔWT (change from pre-dosing 50% withdrawal threshold)” value in assay [1] (10 mg/kg IP) is 0 grams. Besides, in assay [2], the 50% inhibitory concentration (IC50) is more than 200 µM.
As for `CC(C)c1nn2ccccc2c1C(=O)C(C)N1CCNCC1` (stereo not drawn) [Compound 1037, 1-(2-isopropylpyrazolo[1,5-a]pyridin-3-yl)-2-(piperazin-1-yl)propan-1-one hydrochloride], in assay [1] (10 mg/kg IP), the “Mechanical Allodynia ΔWT (change from pre-dosing 50% withdrawal threshold)” value came to 0 grams. In assay [2], the IC50 is more than 200 µM.
Regarding `CC(C)c1nn2ccccc2c1C(=O)c1ncccc1Cl` [Compound 1038, (3-chloropyridin-2-yl)(2-isopropylpyrazolo[1,5-a]pyridin-3-yl)methanone], the “Mechanical Allodynia ΔWT (change from pre-dosing 50% withdrawal threshold)” value in assay [1] (10 mg/kg IP) is listed as 0.32 grams. The molecule further registered an IC50 in assay [2] of 26.4 µM.
With `CC(C)c1nn2ccccc2c1C(=O)C(N)c1ccccc1` (stereo not drawn) [Compound 1039, 2-amino-1-(2-isopropylpyrazolo[1,5-a]pyridin-3-yl)-2-phenylethanone], the “Mechanical Allodynia ΔWT (change from pre-dosing 50% withdrawal threshold)” value in assay [1] (10 mg/kg IP) is given as 0.05 grams. The molecule also gave an IC50 in assay [2] of 8.2 µM.
For `CCC(=O)c1c(CC)nn2ccccc12` [Compound 1040, 1-(2-ethylpyrazolo[1,5-a]pyridin-3-yl)propan-1-one], the “Mechanical Allodynia ΔWT (change from pre-dosing 50% withdrawal threshold)” value in assay [1] (10 mg/kg IP) amounted to 0.12 grams. The molecule also returned an IC50 in assay [2] of 27.1 µM.
As to `CC(C)c1nn2ccccc2c1C(=O)C(C)N(C)Cc1ccccc1` (stereo not drawn) [Compound 1041, 2-(benzyl(methyl)amino)-1-(2-isopropylpyrazolo[1,5-a]pyridin-3-yl)propan-1-one], the “Mechanical Allodynia ΔWT (change from pre-dosing 50% withdrawal threshold)” value in assay [1] (10 mg/kg IP) turned out to be 0.22 grams. In assay [2], this molecule yielded an IC50 of 21.5 µM.
With `CNC(C)C(=O)c1c(C(C)C)nn2ccccc12` (stereo not drawn) [Compound 1042, 1-(2-isopropylpyrazolo[1,5-a]pyridin-3-yl)-2-(methylamino)propan-1-one hydrochloride], the “Mechanical Allodynia ΔWT (change from pre-dosing 50% withdrawal threshold)” value in assay [1] (10 mg/kg IP) was 10 mg/kg: 0.37 grams; in assay [1] (20 mg/kg IP), 20 mg/kg: 0.22 grams. The molecule further gave an IC50 in assay [2] of 31.9 µM.
On to `CC(C)c1nn2ccccc2c1C(NC1CC1)C(C)C` (stereo not drawn) [Compound 1044, N-(1-(2-isopropylpyrazolo[1,5-a]pyridin-3-yl)-2-methylpropyl)cyclopropanamine], for which the “Mechanical Allodynia ΔWT (change from pre-dosing 50% withdrawal threshold)” value in assay [1] (10 mg/kg IP) was found to be 0.08 grams. This molecule also yielded an IC50 in assay [2] of more than 200 µM.
For `CC(NC1CC1)C(=O)c1c(C(C)C)nn2ccccc12` (stereo not drawn) [Compound 1045, 2-(cyclopropylamino)-1-(2-isopropylpyrazolo[1,5-a]pyridin-3-yl)propan-1-one hydrochloride], in that order: 0 grams and 61.1 µM.
On to `CC(C)c1nn2ccccc2c1C(NCC1CC1)C(C)C` (stereo not drawn) [Compound 1048, N-(cyclopropylmethyl)-1-(2-isopropylpyrazolo[1,5-a]pyridin-3-yl)-2-methylpropan-1-amine hydrochloride], for which the “Mechanical Allodynia ΔWT (change from pre-dosing 50% withdrawal threshold)” value in assay [1] (10 mg/kg IP) was 0 grams. The IC50 in assay [2] is more than 200 µM.
Consider `CC(C)C(=O)c1c(C(C)(C)O)nn2ccccc12` [compound 1003, 1-(2-(2-hydroxypropan-2-yl)pyrazolo[1,5-a]pyridin-3-yl)-2-methylpropan-1-one], for which, in assay [1] (10 mg/kg IP), the “Mechanical Allodynia ΔWT (change from pre-dosing 50% withdrawal threshold)” value turned out to be 0 grams. Moreover, the IC50 in assay [2] was more than 100 µM.
In the same order, the values of `CC(C)=Cc1c(C(C)C)nn2ccccc12` [compound 1049, 2-isopropyl-3-(2-methylprop-1-enyl)pyrazolo[1,5-a]pyridine] are 0 grams and 92.5 µM.

Usually IC50 stands for the point on the concentration scale where inhibition reaches its midpoint.
